Laboratory results from patent US6825230B2, “Spiro and dispiro 1,2,4-trixolane antimalarials” (Medicines for Malaria Venture MMV, priority 2002, dated 2004).
In brackets after ≈: the same amount, converted by molar mass. Where two headings read alike, the source gives them in different places.

Columns and labels:
[1] = tested on: chloroquine-sensitive NF54 strain of P. falciparum; assay: In vitro antimalarial semiautomated microdilution assay ([3H]-hypoxanthine incorporation), NF54 strain; type: cell-based, Plasmodium falciparum; conditions: Plasmodium falciparum
Method: (§1) Various OZ compounds were tested by the semiautomated microdilution assay against intraerythrocytic forms of Plasmodium falciparum derived from asynchronous stock cultures.
(§2) Fifty percent inhibitory concentration (IC50) were estimated by Logit regression analysis.

[2] = tested on: chloroquine-resistant K1 strain of P. falciparum; assay: In vitro antimalarial semiautomated microdilution assay ([3H]-hypoxanthine incorporation), K1 strain; type: cell-based, Plasmodium falciparum; conditions: Plasmodium falciparum
Method: as §1, §2

[3] = tested on: ANKA strain of P. berghei; assay: Single dose STI in vivo screen in infected mice; parameters: species or system Plasmodium berghei; conditions: for Survival (days) 10 mg/kg po: single 10 mg/kg po in 3% ethanol and 7% Tween 80; for Survival (days) 10 mg/kg po / Survival (days) 10 mg/kg SSV po / Survival (days) 10 mg/kg sc: untreated 6-7 days; for Activity (%) 10 mg/kg po: single 10 mg/kg po in 3% ethanol and 7% Tween 80 on day 1 post-infection; for Activity (%) 10 mg/kg po / Activity (%) 10 mg/kg SSV po / Activity (%) 10 mg/kg sc: percent reduction in parasitemia on day 3; for Survival (days) 10 mg/kg SSV po: single 10 mg/kg po in SSV; for Activity (%) 10 mg/kg SSV po: single 10 mg/kg po in standard suspending vehicle (SSV) on day 1 post-infection; for Survival (days) 10 mg/kg sc: single 10 mg/kg sc in 3% ethanol and 7% Tween 80; for Activity (%) 10 mg/kg sc: single 10 mg/kg sc in 3% ethanol and 7% Tween 80 on day 1 post-infection
[4] = chloroquine-sensitive NF54 strain, 72 h incubation, read-out: IC50 (ng/ml) NF54
[5] = chloroquine-resistant K1 strain, 72 h incubation, read-out: IC50 (ng/ml) K1
[6] = NF54, 72 h, read-out: IC50 (ng/ml) NF54, chloroquine-sensitive NF54 strain, 72 h incubation
[7] = K1, 72 h, read-out: IC50 (ng/ml) K1, chloroquine-resistant K1 strain, 72 h incubation

Structure (SMILES) | IC50 [1, 4] | IC50 [2, 5] | Survival (days) 10 mg/kg po [3] | Activity (%) 10 mg/kg po [3] | Survival (days) 10 mg/kg SSV po [3] | Activity (%) 10 mg/kg SSV po [3] | Survival (days) 10 mg/kg sc [3] | Activity (%) 10 mg/kg sc [3] | IC50 [1, 6] | IC50 [2, 7]
CCOC(=O)C1(C(=O)OCC)COC2(CCC3(CC2)OOC2(O3)C3CC4CC(C3)CC2C4)OC1 (stereo not drawn) [OZ120, Adamantane-2-spiro-3′-11′,11′-bis(ethoxycarbonyl)-1′,2′,4′,9′,13′-pentaoxadispiro[4.2.5.2]pentadecane] | 0.59 ng/mL (≈ 1.23 nM) | 1.2 ng/mL (≈ 2.5 nM) | 6.0 days | 33% | 5.7 days | 8% | 8.0 days | 96% |  | 
OCC1(CO)COC2(CCC3(CC2)OOC2(O3)C3CC4CC(C3)CC2C4)OC1 (stereo not drawn) [OZ121, Adamantane-2-spiro-3′-11′,11′-bis(hydroxymethyl)-1′,2′,4′,9′,13′-pentaoxadispiro[4.2.5.2]pentadecane] |  |  | 7.3 days | 91% | 8.0 days | 98% | 7.3 days | 99.61% | 0.41 ng/mL (≈ 1.03 nM) | 0.96 ng/mL (≈ 2.42 nM)
O=C(O)C1(C(=O)O)COC2(CCC3(CC2)OOC2(O3)C3CC4CC(C3)CC2C4)OC1 (stereo not drawn) [OZ122, Adamantane-2-spiro-3′-11′,11′-dicarboxy-1′,2′,4′,9′,13′-pentaoxadispiro[4.2.5.2]pentadecane] | > 100 ng/mL | > 100 ng/mL | 5.7 days | 10% | 5.3 days | 3% | 5.0 days | 0% |  | 
BrC[C@H]1CC[C@]2(CC1)OOC1(O2)C2CC3CC(C2)CC1C3 (stereo partly drawn) [OZ123] | 1.9 ng/mL (≈ 5.32 nM) | 1.6 ng/mL (≈ 4.48 nM) | 8.0 days | 99.66% | 7.0 days | 94% | 16 days | 99.96% |  | 
N#Cc1ccc(C2(c3ccccc3)OOC3(O2)C2CC4CC(C2)CC3C4)cc1 (stereo not drawn) [OZ124] | 1.7 ng/mL (≈ 4.55 nM) | 2.1 ng/mL (≈ 5.62 nM) | 6.3 days | 72% | 5.3 days | 17% | 7.0 days | 86% |  | 
CCOC(=O)c1ccc(C2(c3ccc(C(=O)OCC)cc3)OOC3(O2)C2CC4CC(C2)CC3C4)cc1 (stereo not drawn) [OZ125, Adamantane-2-spiro-3′-5′,5′-bis[4′-(ethoxycarbonyl)phenyl]-1′,2′,4′-trioxolane] | > 100 ng/mL | 68 ng/mL (≈ 138 nM) | 5.3 days | 8% | 5.7 days | 0% | 6.0 days | 0% |  | 
C=C1COC2(CCC3(CC2)OOC2(O3)C3CC4CC(C3)CC2C4)OC1 (stereo not drawn) [OZ128, Adamantane-2-spiro-3′-11′-methylene-1′,2′,4′,9′,13′-pentaoxadispiro[4.2.5.2]pentadecane] |  |  | 8.3 days | 99.93% | 8.7 days | 99.95% | 11.7 days | 99.98% | 1.1 ng/mL (≈ 3.16 nM) | 0.59 ng/mL (≈ 1.69 nM)
CC(C)(CO)NC(=O)[C@H]1CC[C@]2(CC1)OOC1(O2)C2CC3CC(C2)CC1C3 (stereo partly drawn) [OZ129] |  |  | 5.3 days | 0% | 5.7 days | 4% | 5.7 days | 0% | > 10 ng/mL | 10 ng/mL (≈ 26.4 nM)
O=S(=O)(Cc1ccccc1)N1CCC2(CC1)OOC1(O2)C2CC3CC(C2)CC1C3 (stereo not drawn) [OZ131, Adamantane-2-spiro-3′-8′-phenylmethanesulfonyl-1′,2′,4′-trioxa-8′-azaspiro[4.5]decane] |  |  | 5.7 days | 21% | 6.0 days | 41% | 8.0 days | 90% | 4.1 ng/mL (≈ 9.77 nM) | 1.7 ng/mL (≈ 4.05 nM)
